Data taken from US10590118B2, “Bicyclic heterocyclic derivatives as bromodomain inhibitors” (Orion Corporation, priority 2014, dated 2020).
pIC50: −log10 of the molar value. Values belong to the compound of their own block, whether it stands above or below them.

Target: T1, Bet bromodomain protein (BRD4) (Homo sapiens, UniProt O60885)
T1 construct: made in house
Assay: Bet bromodomain TR-FRET assay
Assay type: binding
Details: 300 nM acetyl histone peptide substrate, results given as Group A/B/C
Experimental: In-Vitro Biochemical Data of bicyclic heterocyclic derivatives in time-resolved fluorescence resonance energy transfer (TR-FRET) assay.
The Bet brommodomain TR-FRET assay has been used to identify compounds that bind to bet bromodomain and prevent its interaction with acetylated histone peptides.
In the assay, optimized concentration of in-house Bet bromodomain protein (BRD4) and 300 nM of acetyl histone peptide substrate were diluted in assay buffer (50 mM HEPES, pH: 7.5, 50 mM NaCl, 500 μM CHAPS) and were added to the positive control and test control wells in a 384 well plate. Substrate control wells have 300 nM of acetyl histone peptide substrate diluted in assay buffer. Buffer blank wells were added with assay buffer. The reaction mixture was allowed for incubation at room temperature for 30 mins. Stock solutions of test compounds at 20 mM DMSO are prepared. Compounds are serially diluted and added to the test wells in 384-well polypropylene plates. The reaction mixture was further incubated for 30 mins at room temperature on a plate shaker. 2 nM of Europium labeled streptavidn and 10 nM of XL-665 labeled antibody diluted in detection buffer (50 mM HEPES, pH: 7.5, 50 mM NaCl, 500 μM CHAPS and 800 mM KF) were added to all the wells excluding the buffer blank wells. The reaction plate was incubated for additional 30 mins at room temperature on plate shaker. The plate was read in Perkin Elmer WALLAC 1420 Multilabel Counter Victor 3 (Ex: 340 nm Em: 615 and 665 nm). The amount of displacement of the peptide was measured as ratio of specific 665 nm energy transfer signal to 615 nm signals. The compounds IC50 was determined by fitting the dose response data to sigmoid curve fitting equation using Graph Pad Prism software V5.

Compound: Cc1noc(C)c1-c1cc2ccc(=O)n(Cc3ccccn3)c2cc1OCC1CCOCC1 [Compound 87, 6-(3,5-dimethylisoxazol-4-yl)-1-(pyridin-2-ylmethyl)-7-((tetrahydro-2H-pyran-4-yl)methoxy)quinolin-2(1H)-one]
- pIC50: 5.52 to 6.00

Compound: COc1cc2c(ccc(=O)n2Cc2ncccn2)cc1-c1c(C)noc1C [Compound 43, 6-(3,5-dimethylisoxazol-4-yl)-7-methoxy-1-(pyrimidin-2-ylmethyl)quinolin-2(1H)-one]
- pIC50: ≥ 6.00

Compound: Cc1noc(C)c1-c1cc2ccc(=O)n(Cc3ccccn3)c2cc1OCCCO [Compound 84, 6-(3,5-dimethylisoxazol-4-yl)-7-(3-hydroxypropoxy)-1-(pyridin-2-ylmethyl)quinolin-2(1H)-one]
- pIC50: ≥ 6.00

Compound: COc1cc2c(ccc(=O)n2Cc2ccncn2)cc1-c1c(C)noc1C [Compound 44, 6-(3,5-dimethylisoxazol-4-yl)-7-methoxy-1-(pyrimidin-4-ylmethyl)quinolin-2(1H)-one]
- pIC50: ≥ 6.00

Compound: COc1cc2c(cc1-c1c(C)noc1C)C(=O)C(C)(C)C(=O)N2Cc1ccccn1 [Compound 51, 6-(3,5-dimethylisoxazol-4-yl)-7-methoxy-3,3-dimethyl-1-(pyridin-2-ylmethyl)quinoline-2,4(1H,3H)-dione]
- pIC50: 5.52 to 6.00

Compound: COc1cc2c(ccc(=O)n2Cc2ccccn2)cc1-c1ccc(O)nc1 [Compound 61, 6-(6-hydroxypyridin-3-yl)-7-methoxy-1-(pyridin-2-ylmethyl)quinolin-2(1H)-one]
- pIC50: < 5.52

Compound: COc1cc2c(ccc(=O)n2Cc2ccccn2)cc1-n1c(C)nnc1C [Compound 3, 6-(3,5-dimethyl-4H-1,2,4-triazol-4-yl)-7-methoxy-1-(pyridin-2-ylmethyl)quinolin-2(1H)-one]
- pIC50: < 5.52

Compound: Cc1noc(C)c1-c1cc2ccc(=O)n(Cc3ccccn3)c2cc1OCC(F)(F)F [Compound 74, 6-(3,5-dimethylisoxazol-4-yl)-1-(pyridin-2-ylmethyl)-7-(2,2,2-trifluoroethoxy)quinolin-2(1H)-one]
- pIC50: ≥ 6.00

Compound: COc1cc2c(ccc(=O)n2C(C)c2ccccn2)cc1-c1c(C)noc1C (stereo not shown) [Compound 40, 6-(3,5-dimethytisoxazol-4-yl)-7-methoxy-1-(1-(pyridin-2-yl)ethyl)quinolin-2(1H)-one]
- pIC50: ≥ 6.00

Compound: Cc1noc(C)c1-c1cc2ccc(=O)n(Cc3ccccn3)c2cc1OCCN1CCNCC1 [Compound 82, 6-(3,5-dimethylisoxazol-4-yl)-7-(2-(piperazin-1-yl)ethoxy)-1-(pyridin-2-ylmethyl)quinolin-2(1H)-one]
- pIC50: 5.52 to 6.00

Compound: COc1cc2c(cc1-c1c(C)noc1C)cc(C)c(=O)n2Cc1ccc(Cl)cn1 [Compound 58, 1-((5-chloropyridin-2-yl)methyl)-6-(3,5-dimethylisoxazol-4-yl)-7-methoxy-3-methylquinolin-2(1H)-one]
- pIC50: ≥ 6.00

Compound: COc1cc2c(ccc(=O)n2Cc2ccc(-c3cnn(C)c3)cn2)cc1-c1c(C)noc1C [Compound 98, 6-(3,5-dimethylisoxazol-4-yl)-7-methoxy-1-((5-(1-methyl-1H-pyrazol-4-yl)pyridin-2-yl)methyl)quinolin-2(1H)-one]
- pIC50: ≥ 6.00

Compound: Cc1noc(C)c1-c1cc2ccc(=O)n(Cc3ccccn3)c2cc1OCCN1CCOCC1 [Compound 75, 6-(3,5-dimethylisoxazol-4-yl)-7-(2-morpholinoethoxy)-1-(pyridin-2-ylmethyl)quinolin-2(1H)-one]
- pIC50: 5.52 to 6.00

Compound: COc1cc2c(ccc(=O)n2Cc2ccccn2)cc1-c1c(C)noc1C [Compound 46, 6-(3,5-dimethylisoxazol-4-yl)-7-methoxy-1-(pyridin-2-ylmethyl)quinolin-2(1H)-one]
- pIC50: ≥ 6.00

Compound: COc1cc2c(cc1-c1c(C)noc1C)c(C1CC1)cc(=O)n2Cc1ccccn1 [Compound 55, 4-cyclopropyl-6-(3,5-dimethytisoxazol-4-yl)-7-methoxy-1-(pyridin-2-ylmethyl)quinolin-2(1H)-one]
- pIC50: ≥ 6.00

Compound: Cc1noc(C)c1-c1cc2ccc(=O)n(Cc3ccccn3)c2cc1OCCO [Compound 80, 6-(3,5-dimethylisoxazol-4-yl)-7-(2-hydroxyethoxy)-1-(pyridin-2-ylmethyl)quinolin-2(1H)-one]
- pIC50: ≥ 6.00

Compound: COc1cc2c(ccc(=O)n2Cc2cccnc2)cc1-c1c(C)noc1C [Compound 36, 6-(3,5-dimethylisoxazol-4-yl)-7-methoxy-1-(pyridin-3-ylmethyl)quinolin-2(1H)-one]
- pIC50: ≥ 6.00

Compound: COc1cc2c(cc1-c1c(C)noc1C)cc(CF)c(=O)n2Cc1ccccn1 [Compound 97, 6-(3,5-dimethylisoxazol-4-yl)-3-(fluoromethyl)-7-methoxy-1-(pyridin-2-ylmethyl)quinolin-2(1H)-one]
- pIC50: ≥ 6.00

Compound: Cc1noc(C)c1-c1cc2ccc(=O)n(Cc3ccccn3)c2cc1OCC1CCNCC1 [Compound 77, 6-(3,5-dimethylisoxazol-4-yl)-7-(piperidin-4-ylmethoxy)-1-(pyridin-2-ylmethyl)quinolin-2(1H)-one]
- pIC50: ≥ 6.00

Other lines, results leading:

- pIC50: ≥ 6.00
Compound: COc1cc2c(cc1-c1c(C)noc1C)CCC(=O)N2Cc1ccc(Cl)cc1 [Compound 5, 1-(4-chlorobenzyl)-6-(3,5-dimethyisoxazol-4-yl)-7-methoxy-3,4-dihydroquinolin-2(1H)-one]

- pIC50: ≥ 6.00
Compound: COc1cc2c(cc1-c1c(C)noc1C)OCC(=O)N2Cc1ccc(Cl)cc1 [Compound 18, 4-(4-chlorobenzyl)-7-(3,5-dimethylisoxazol-4-yl)-6-methoxy-2H-benzo[b][1,4]oxazin-3(4H)-one]

- pIC50: ≥ 6.00
Compound: COc1cc2c(cc1-c1c(C)noc1C)OCC(=O)N2Cc1ccc(Cl)cn1 [Compound 28, 4-((5-chloropyridin-2-yl)methyl)-7-(3,5-dimethylisoxazol-4-yl)-6-methoxy-2H-benzo[b][1,4]oxazin-3(4H)-one]

- pIC50: < 5.52
Compound: COc1cc2c(cc1NS(=O)(=O)c1c(C)noc1C)OCC(=O)N2Cc1ccc(Cl)cc1 [Compound 13, N-(4-(4-chlorobenzyl)-6-methoxy-3-oxo-3,4-dihydro-2H-benzo[b][1,4]oxazin-7-yl)-3,5-dimethylisoxazole-4-sulfonamide]

- pIC50: ≥ 6.00
Compound: COc1ccc(CN2C(=O)COc3cc(-c4c(C)noc4C)c(OC)cc32)cn1 [Compound 26, 7-(3,5-dimethylisoxazol-4-yl)-6-methoxy-4-((6-methoxypyridin-3-yl)methyl)-2H-benzo[b][1,4]oxazin-3(4H)-one]

- pIC50: 5.52 to 6.00
Compound: COc1cc2c(cc1-c1c(C)noc1C)OCC(=O)N2C(C)c1ccccn1 (stereo not shown) [Compound 31]

- pIC50: ≥ 6.00
Compound: COc1cc2c(cc1-c1c(C)noc1C)OCC(=O)N2CC1CCOCC1 [Compound 23, 7-(3,5-dimethytisoxazol-4-yl)-6-methoxy-4-((tetrahydro-2H-pyran-4-yl)methyl)-2H-benzo[b][1,4]oxazin-3(4H)-one]

- pIC50: ≥ 6.00
Compound: COc1cc2c(cc1-c1c(C)noc1C)cc(CC#N)c(=O)n2CCc1ccc(Cl)cc1 [Compound 106, 2-(1-(4-chlorophenethyl)-6-(3,5-dimethylisoxazol-4-yl)-7-methoxy-2-oxo-1,2-dihydroquinolin-3-yl)acetonitrile]

- pIC50: ≥ 6.00
Compound: COc1cc2c(cc1-c1c(C)noc1C)OCC(=O)N2Cc1ccc(F)cn1 [Compound 29, 7-(3,5-dimethylisoxazol-4-yl)-4-((5-fluoropyridin-2-yl)methyl)-6-methoxy-2H-benzo[b][1,4]oxazin-3(4H)-one]
